The subject of experiment [1] is HL60 cells. Nature of the experiment: Anti-proliferation ability of compounds on HL60 cells (CTG). The experiment is classed as cell-based, human. The conditions noted are these: Homo sapiens, HL-60, 72 h, 3 days, CellTiter-Glo, read-out: HL60 cells Proliferation inhibitory activity. The protocol:
II. Activity test 2: Anti-proliferation ability of compounds on HL60 cells: 1 Cell plating
HL60 cells in the logarithmic growth phase were counted and plated evenly in a 96-well transparent bottom white plate at 20000 cells per well and 100 μL per well.
A certain amount of the compounds was weighed and diluted with DMSO to a 10 mM stock solution. The culture mediums corresponding to the cells were taken, and the drugs were diluted to the concentration required by the test, shaken gently and mixed evenly. 50 μl of the gradient dilution of the diluted compound was added to each well of the plated cells, and 50 μL of 0.1% DMSO was added to the control group. The plate was shaken gently, mixed evenly and incubated in a cell culture incubator for 3 days.
• 3.1 The CellTiter-GLo™ (CTG) reagent was taken in advance from the −20° C. refrigerator and equilibrated to room temperature in the dark (white bottle+brown bottle, 1:1 mixing evenly into the brown bottle, for later use). • 3.2 The 96-well plate was taken out and inspected under a microscope for growth situation. • 3.3 The bottom of the 96-well plate was tagged with white paper, and then the plate was wrapped with tin foil paper, shaken at 37° C. at 300 r for 10 min and mixed evenly. • 3.4 50 ul of CTG detection reagent was added to each well, Luminescence signal was detected using a microplate reader, and the inhibition rate was calculated. IC50 values of the compounds were calculated by XLfit software to evaluate the proliferation inhibitory activity on HL60 cells.

Experiment [2] addresses T1, c-Myc protein (Homo sapiens, UniProt P01106).
T1 construct: endogenous in cells; host or cells: HL60 cells
Nature of the experiment: Ability of compounds to degrade c-Myc protein in HL60 cells (ELISA). The experiment is classed as cell-based. The conditions noted are these: HL-60, 1 μM compound, 24 h, read-out: HL60 cells Protein degradation rate (1 μM). The protocol: I Activity test 1: Ability of compounds to degrade c-Myc protein in HL60 cells:
HL60 cells in the exponential growth phase were centrifuged, diluted with fresh culture mediums to 6×10^4 cells/100 μL and plated into a 96-well plate at 100 μL per well.
Preparation of test compounds: the compounds were weighed and diluted with DMSO to a 10 mM stock solution for later use. According to test requirements, drugs were diluted with cell culture mediums, with ten-fold dilutions starting from 10 μM, to achieve 3 concentration gradients: 10 μM, 1 μM and 100 NM; and finally, 1 μL of the drugs (DMSO content: 0.01%) were added to each well. For the blank control group, DMSO was also diluted with cell culture mediums, and finally, 1 μL of the control reagent (DMSO content: 0.01%) was added to each well.
3. Effect of drugs on c-Myc in cells as determined by ELISA
After 24 h of drug action, the culture mediums were removed, and the cells were washed once with ice-cold 1× PBS. PBS was removed, and 100 μL of ice-cold 1× Cell Lysis Buffer plus 1 mM phenylmethylsulfonyl fluoride (PMSF) was added to each well. The plate was incubated on ice for 20 min and centrifuged at 4000 RPM at 4° C. for 10 min for later use.
4. Reagent and antibody preparation in ELISA kit 1× wash buffer • 1). 16 mL of ELISA wash buffer concentrate (25×) was diluted with 384 mL of deionized water or distilled water, labeled as 1× Wash Buffer. • 2). The concentrate and 1× Wash Buffer were stored in the refrigerator. The diluted buffer was used within 14 days.
The cell extraction buffer contains 10 mM Tris (pH 7.4), 100 mM NaCl, 1 mM EDTA, 1 mM EGTA, 1 mM NaF, 20 mM Na4P2O7 2 mM Na3VO4. 1% Triton™ ×-100, 10% glycerol, 0.1% SDS and 0.5% deoxycholate. Immediately before use, PMSF (0.3 M stock solution in DMSO) was added to the buffer to a final concentration of 1 mM.
Standard curve configuration: The standard liquid was diluted using glass or plastic tubes. • 1). Huc-Myc (total) standard liquid (Invitrogen, KH02041) was reconstituted with a standard dilution to 1000 pg/mL. Refer to the standard vial label for instructions. The contents were gently swirled or mixed and then allowed to stand for 10 minutes to ensure complete reconstitution, labeled as 1,000 pg/mL human c-Myc. The standard liquid was used within 1 hour after reconstitution. • 2). 250 μL of standard dilution buffers were added to 7 test tubes respectively labeled 500, 250, 125, 62.5, 31.25, 15,63 and 0 pg/mL. • 3). 250 μL of the 1000 pg/ml standard stock solution was added to the first EP tube to a concentration of 500 pg/mL, vortexed and mixed evenly. 250 μL of the resulting mixture was further pipetted and added to the second EP tube to a concentration of 250 pg/mL. Serial dilutions were performed until the sixth EP tube with a concentration of 15.63 pg/mL. Dilution was not performed on the last EP tube. • 4). The remaining reconstituted standard liquid should be discarded, or aliquoted and frozen at −80° C. for further use. Standards can be frozen and thawed only once without losing immunoreactivity.
1× anti-rabbit IgG HRP solution: 1× anti-rabbit IgG HRP solution was prepared within 15 minutes of use. The anti-rabbit IgG HRP (100×) contained 50% viscous glycerol. To ensure accurate dilutions, the following operations were carried out: 1 For each 8-well test strip used in the test, 10 μl, of the anti-rabbit IgG -IRP (100×) solution was pipetted, wherein the pipette tip was wiped with clean absorbent paper to remove excess solutions, and then the solution was dispensed into a test tube containing 1 mL of HRP diluent and mixed thoroughly. 2. The unused anti-rabbit IgG HRP (100×) was placed in the refrigerator for storage.
50 μL of the standard liquid was added to the appropriate wells and not added to the blank control well. Except for the blank control well, 50 μL of Hu c-Myc (total) detection antibody solution was added to each well and mixed by tapping the side face of the plate. […]

T1 sequence (P01106 whole entry): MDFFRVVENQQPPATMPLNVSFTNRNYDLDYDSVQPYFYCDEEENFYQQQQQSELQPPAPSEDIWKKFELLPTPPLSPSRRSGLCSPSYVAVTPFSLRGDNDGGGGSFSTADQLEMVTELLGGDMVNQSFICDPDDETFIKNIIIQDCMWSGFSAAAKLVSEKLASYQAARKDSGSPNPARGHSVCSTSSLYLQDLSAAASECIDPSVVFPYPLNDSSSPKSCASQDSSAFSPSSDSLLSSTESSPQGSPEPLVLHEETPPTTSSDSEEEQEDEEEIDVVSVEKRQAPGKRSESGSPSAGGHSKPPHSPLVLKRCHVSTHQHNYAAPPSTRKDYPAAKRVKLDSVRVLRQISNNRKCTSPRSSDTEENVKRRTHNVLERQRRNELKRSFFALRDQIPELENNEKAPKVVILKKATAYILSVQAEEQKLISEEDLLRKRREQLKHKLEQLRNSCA

For `O=C(Cc1cccc2ccccc12)NCc1ccc(CCNC(=O)c2ccc3c(c2)C(=O)N(C2CCC(=O)NC2=O)C3=O)cc1` (stereo not drawn) [A42], in experiment [1], the IC50 was determined as 3640 ± 895 nM. Further, the inhibition at 1 µM in experiment [2] fell in the range of 60 to 90%.
Consider `O=C(Cn1c2ccccc2c2cccnc21)NCc1ccc(CCNC(=O)c2ccc3c(c2)C(=O)N(C2CCC(=O)NC2=O)C3=O)cc1` (stereo not drawn) [A43], for which the IC50 in experiment [1] is 282 ± 27.5 nM. Further, in experiment [2], the inhibition at 1 µM lay in the range of 60 to 90%.
On to `O=C1CCC(N2C(=O)c3ccc(C(=O)NCc4ccc(NC(=O)Cc5cccc6ccccc56)cc4)cc3C2=O)C(=O)N1` (stereo not drawn) [A44], for which the IC50 in experiment [1] amounted to 5400 ± 683 nM. For the same molecule, in experiment [2], the inhibition at 1 µM was 30 to 60%.
Consider `O=C1CCC(N2C(=O)c3ccc(C(=O)NCc4ccc(CNC(=O)Nc5cccc6ccccc56)cc4)cc3C2=O)C(=O)N1` (stereo not drawn) [A45], for which the IC50 in experiment [1] amounted to 61.6 ± 21 nM. Further, in experiment [2], the inhibition at 1 µM is 60 to 90%.
Take `O=C1CCC(N2C(=O)c3ccc(C(=O)NC[C@H]4CC[C@H](CNC(=O)Nc5cccc6ccccc56)CC4)cc3C2=O)C(=O)N1` (stereo partly drawn) [A46]: the IC50 in experiment [1] was 50.2 ± 14 nM. Also, the inhibition at 1 µM in experiment [2] lay within 60 to 90%.
In the same order, the values of `O=C1CCC(N2C(=O)c3ccc(C(=O)NC[C@H]4CC[C@H](CNC(=O)Nc5cccc6cccnc56)CC4)cc3C2=O)C(=O)N1` (stereo partly drawn) [A47] are 1040 ± 171 nM and 60 to 90%.
Take `O=C1CCC(N2C(=O)c3ccc(C(=O)NC[C@H]4CC[C@H](CNC(=O)Nc5cccc6ccncc56)CC4)cc3C2=O)C(=O)N1` (stereo partly drawn) [A48]: the IC50 in experiment [1] was determined as 3579 ± 29 nM. For the same molecule, the inhibition at 1 µM in experiment [2] is 60 to 90%.
For `O=C1CCC(N2C(=O)c3ccc(C(=O)NC[C@H]4CC[C@H](CNC(=O)Nc5cccc6cnccc56)CC4)cc3C2=O)C(=O)N1` (stereo partly drawn) [A49], the IC50 in experiment [1] came to 6820 ± 1630 nM. The inhibition at 1 µM in experiment [2] is 60 to 90%.
For `O=C1CCC(N2C(=O)c3ccc(C(=O)NC[C@H]4CC[C@H](CNC(=O)Nc5cccc6ncccc56)CC4)cc3C2=O)C(=O)N1` (stereo partly drawn) [A50] the same measures were 10400 ± 235 nM and 10 to 30%.
As to `O=C1CCC(N2C(=O)c3ccc(C(=O)NC[C@H]4CC[C@H](CNC(=O)Nc5nccc6ccccc56)CC4)cc3C2=O)C(=O)N1` (stereo partly drawn) [A51], in experiment [1], the IC50 worked out at 336 ± 30 nM. The inhibition at 1 µM in experiment [2] is 60 to 90%.
On to `O=C1CCC(N2C(=O)c3ccc(C(=O)NC[C@H]4CC[C@H](CNC(=O)Nc5cncc6ccccc56)CC4)cc3C2=O)C(=O)N1` (stereo partly drawn) [A52], for which, in experiment [1], the IC50 was found to be 8060 ± 637 nM. The inhibition at 1 µM in experiment [2] fell in the range of 30 to 60%.
On to `O=C(Cc1ccccc1)NCc1ccc(CNC(=O)c2ccc3c(c2)C(=O)N(C2CCC(=O)NC2=O)C3=O)cc1` (stereo not drawn) [A53], for which, in experiment [1], the IC50 was determined as 1450 ± 280 nM. Further, the inhibition at 1 µM in experiment [2] lay in the range of 60 to 90%.
Consider `COc1ccccc1CC(=O)NCc1ccc(CNC(=O)c2ccc3c(c2)C(=O)N(C2CCC(=O)NC2=O)C3=O)cc1` (stereo not drawn) [A54], for which, in experiment [1], the IC50 is 2330 ± 518 nM. Further, in experiment [2], the inhibition at 1 µM lay in the range of 60 to 90%.
Regarding `COc1cccc(CC(=O)NCc2ccc(CNC(=O)c3ccc4c(c3)C(=O)N(C3CCC(=O)NC3=O)C4=O)cc2)c1` (stereo not drawn) [A55], the IC50 in experiment [1] amounted to 181 ± 32.8 nM. Also, the inhibition at 1 µM in experiment [2] is 60 to 90%.
As for `COc1cccc(CC(=O)NCc2ccc(CNC(=O)c3ccc4c(c3)C(=O)N(C3CCC(=O)NC3=O)C4=O)cc2)c1OC` (stereo not drawn) [A56], in experiment [1], the IC50 worked out at 666 ± 60.2 nM. In addition, the inhibition at 1 µM in experiment [2] lay within 60 to 90%.

Values taken from patent US20240350643A1, “PROTEIN DEGRADATION AGENT” (SUZHOU KINTOR PHARMACEUTICALS, INC., priority 2021, published 2024).
